Our source for the IC50 values is BindingDB's records for doi:10.1021/jm00065a013 (Washington University, 1993).

For orientation: IC50 means the concentration that gives 50% inhibition. Read a low IC50 as higher potency.

*1 amine or outer side, *2 acyl side, *3 side chain or, on linkers, in order; H or OH if unused. Where a SMILES comes first, the peptide text is derived from it. Bridges are numbered along the chain shown (N, C = ends). Roman numbers before positions name the chains, in order. [ ]: non-standard residue; d: D form. Pro(4R-SH) = O=C([C@@H]1C[C@@H](S[*:3])CN1[*:1])[*:2]; Pro(4S-SH) = O=C([C@@H]1C[C@H](S[*:3])CN1[*:1])[*:2]; hCys = N[C@@H](CCS)C(=O)O; Sar = CNCC(=O)O

In the assay the target is Type-2 angiotensin II receptor (Oryctolagus cuniculus). Briefly: In vitro binding affinity at angiotensin II (type 2) receptor in rabbit uterus.
In turn, `CNCC(=O)N[C@@H](CCCNC(=N)N)C(=O)N[C@H]1CCSSCC[C@@H](C(=O)N[C@@H](Cc2cnc[nH]2)C(=O)N2CCC[C@H]2C(=O)N[C@@H](Cc2ccccc2)C(=O)O)NC(=O)[C@H](Cc2ccc(O)cc2)NC1=O` [2-({1-[2-{[11-[5-Guanidino-2-(2-methylamino-acetylamino)-pentanoylamino]-8-(4-hydroxy-benzyl)-7,10-dioxo-1,2-dithia-6,9-diaza-cyclotridecane-5-carbonyl]-amino}-3-(3H-imidazol-4-yl)-propionyl]-pyrrolidine-2-carbonyl}-amino)-3-phenyl-propionic acid] (H-[Sar]R[hCys]Y[hCys]HPF-OH; disulfide 3-5) gave a half-maximal inhibitory concentration (IC50) of 80 nM. This counts as double-digit nanomolar. The value for `CNCC(=O)N[C@@H](CCCNC(=N)N)C(=O)N1C[C@@H]2C[C@H]1C(=O)N[C@@H](Cc1ccc(O)cc1)C(=O)N[C@H](C(=O)N[C@@H](Cc1cnc[nH]1)C(=O)N1CCC[C@H]1C(=O)N[C@@H](Cc1ccccc1)C(=O)O)CSS[C@H]1C[C@@H](C(=O)N[C@@H](Cc3ccc(O)cc3)C(=O)N[C@H](C(=O)N[C@@H](Cc3cnc[nH]3)C(=O)N3CCC[C@H]3C(=O)N[C@@H](Cc3ccccc3)C(=O)O)CSS2)N(C(=O)[C@H](CCCNC(=N)N)NC(=O)CNC)C1` [bis c[Sar1-Arg2-MPc3-Tyr4-Cys5-His6-Pro7-Phe8]antiparallel] (I: H-[Sar]R[Pro(4S-SH)]YCHPF-OH / II: H-[Sar]R[Pro(4S-SH)]YCHPF-OH; disulfide I:3-II:5, I:5-II:3) was 25 nM; that for `CNCC(=O)N[C@@H](CCCNC(=N)N)C(=O)N1C[C@@H]2C[C@H]1C(=O)N[C@@H](Cc1ccc(O)cc1)C(=O)N[C@H](C(=O)N[C@@H](Cc1cnc[nH]1)C(=O)N1CCC[C@H]1C(=O)N[C@@H](Cc1ccccc1)C(=O)O)CSSC[C@H](C(=O)N[C@H](Cc1cnc[nH]1)C(=O)N1CCC[C@@H]1C(=O)N[C@H](Cc1ccccc1)C(=O)O)NC(=O)[C@@H](Cc1ccc(O)cc1)NC(=O)[C@H]1C[C@H](CN1C(=O)[C@@H](CCCNC(=N)N)NC(=O)CNC)SS2` [bis c[Sar1-Arg2-MPc3-Tyr4-Cys5-His6-Pro7-Phe8]parallel] was 23 nM. To `CNCC(=O)N[C@@H](CCCN=C(N)N)C(=O)N[C@H]1CSSC[C@@H](C(=O)N[C@@H](Cc2c[nH]cn2)C(=O)N2CCC[C@H]2C(=O)N[C@@H](Cc2ccccc2)C(=O)O)NC(=O)[C@H](Cc2ccc(O)cc2)NC(=O)[C@@H](NC(=O)[C@H](CCCN=C(N)N)NC(=O)CNC)CSSC[C@@H](C(=O)N[C@@H](Cc2c[nH]cn2)C(=O)N2CCC[C@H]2C(=O)N[C@@H](Cc2ccccc2)C(=O)O)NC(=O)[C@H](Cc2ccc(O)cc2)NC1=O` [bis-c[Sar1-Arg2-Cys3-Tyr4-Cys5-His6-Pro7-Phe8](antiparallel)] (I: H-[Sar]RCYCHPF-OH / II: H-[Sar]RCYCHPF-OH; disulfide I:3-II:5, I:5-II:3) belongs 65 nM. The value for `CNCC(=O)N[C@@H](CCCN=C(N)N)C(=O)N[C@H]1CC(=O)NCCCC[C@@H](C(=O)N[C@@H](Cc2c[nH]cn2)C(=O)N2CCC[C@H]2C(=O)N[C@@H](Cc2ccccc2)C(=O)O)NC(=O)[C@H](Cc2ccc(O)cc2)NC1=O` [c[Sar1-Arg2-Asp3-Tyr4-Lys5-His6-Pro7-Phe8]] (H-[Sar]RDYKHPF-OH; lactam 3-5) was 86 nM. Compound `CNCC(=O)N[C@@H](CCCNC(=N)N)C(=O)N[C@H]1CSS[C@@H]2C[C@@H](C(=O)N[C@@H](Cc3cnc[nH]3)C(=O)N3CCC[C@H]3C(=O)N[C@@H](Cc3ccccc3)C(=O)O)N(C2)C(=O)[C@H](Cc2ccc(O)cc2)NC1=O` [c[Sar1-Arg2-Cys3-Tyr4-MPt5-His6-Pro7-Phe8]] (H-[Sar]RCY[Pro(4R-SH)]HPF-OH; disulfide 3-5) displayed a half-inhibitory concentration (IC50) of 0.82 nM. This IC50 is about 100-fold lower than that of the compound before. To `CNCC(=O)N[C@@H](CCCNC(=N)N)C(=O)N[C@H]1CCSS[C@H]2C[C@@H](C(=O)N[C@@H](Cc3cnc[nH]3)C(=O)N3CCC[C@H]3C(=O)N[C@@H](Cc3ccccc3)C(=O)O)N(C2)C(=O)[C@H](Cc2ccc(O)cc2)NC1=O` [c[Sar1-Arg2-Hcy3-Tyr4-MPc5-His6-Pro7-Phe8]] (H-[Sar]R[hCys]Y[Pro(4S-SH)]HPF-OH; disulfide 3-5) belongs 9.1 nM; to `CNCC(=O)N[C@@H](CCCNC(=N)N)C(=O)N1C[C@@H]2C[C@H]1C(=O)N[C@@H](Cc1ccc(O)cc1)C(=O)N[C@H](C(=O)N[C@@H](Cc1cnc[nH]1)C(=O)N1CCC[C@H]1C(=O)N[C@@H](Cc1ccccc1)C(=O)O)CSS2` [c[Sar1-Arg2-MPc3-Tyr4-Cys5-His6-Pro7-Phe8]] (H-[Sar]R[Pro(4S-SH)]YCHPF-OH; disulfide 3-5), 12 nM.
